Drawing on ChEMBL document CHEMBL1147347, “Luffariolides F and G, new manoalide derivatives from the Okinawan marine sponge Luffariella sp” (J Nat Prod, 1993), this text covers IC50 and inhibition of growth for seven molecules.

≈ marks a conversion by molar mass, not a printed value.

Experiment [1] has as its system L1210. Description: Cytotoxicity against mouse L1210 cells. Format: functional, cell-based.
The subject of experiment [2] is KB. Description: Cytotoxicity against human KB cells. Format: functional, cell-based.
Experiment [3] has as its system KB. Description: Growth inhibition of human KB cells at 10 ug/ml. Format: functional. The note with it: read-out: GI.

As a reminder, the IC50 is the concentration that inhibits the measured activity by half. `CC1=C(CC/C(C)=C/CC/C(C=O)=C\C=C\C2=CC(=O)O[C@H]2O)C(C)(C)CCC1`: the values for the IC50 in experiment [1] and in experiment [2] were 0.45 µg/mL (≈ 1.13 µM) and 2.1 µg/mL (≈ 5.27 µM), respectively.
Molecule `CC1=C(CC/C(C)=C/CC/C(=C/C[C@H]2OC(=O)C=C2CO)CO)C(C)(C)CCC1` displayed an IC50 in experiment [1] of 1.7 µg/mL (≈ 4.22 µM). In addition, the inhibition of growth at 10 µg/mL in experiment [3] is 36.9%.
On the same counts, the results for `CC(=O)OC/C(=C\C[C@H]1OC(=O)C=C1CO)CC/C=C(\C)CCC1=C(C)CCCC1(C)C` are 3 µg/mL (≈ 6.75 µM) and 44.8%.
Regarding `CC1=C(CC/C(C)=C/CC/C(C=O)=C\C[C@H]2OC(=O)C=C2CO)C(C)(C)CCC1`, the values for the IC50 in experiment [1] and in experiment [2] were 1 µg/mL (≈ 2.5 µM) and 5.6 µg/mL (≈ 14 µM), respectively.
As to `CC1=C(CC/C(C)=C/CC/C(=C/CC2OC(=O)C=C2CO)CO)C(C)(C)CCC1O` (centres undefined) [LUFFARIOLIDE F], the IC50 in experiment [1] was found to be 1.6 µg/mL (≈ 3.82 µM). The inhibition of growth at 10 µg/mL in experiment [3] was 33.4%.
In turn, `CC1=C(CCC(C)(O)/C=C/C/C(=C/CC2OC(=O)C=C2CO)CO)C(C)(C)CCC1` (centres undefined) [LUFFARIOLIDE G] gave a half-maximal inhibitory concentration (IC50) in experiment [1] of 2.8 µg/mL (≈ 6.69 µM). In experiment [3], the inhibition of growth at 10 µg/mL is 30.8%.
Turning to `CC1=C(CC/C(C)=C/CCC2=CC[C@H](C3=CC(=O)O[C@H]3O)O[C@H]2O)C(C)(C)CCC1` [MANOALIDE], the IC50 in experiment [1] worked out at 0.032 µg/mL (≈ 0.0768 µM); in experiment [2], 0.31 µg/mL (≈ 0.744 µM).
